# Like-named read-outs stand apart in the source and are kept apart here.
# What was measured:
# [1] = system: S. aureus Smith (SAU0017, ATCC 19636); experiment: Intraperitoneal murine model of protection against infection (ED50, Table 21); type: in vivo, Staphylococcus aureus; conditions: Swiss CD1 mice infected i.p., compound i.v.
# From the text: A variety of in vivo models may be used to assess the antimicrobial properties of lipopeptide derivative compounds of this disclosure. For example, antimicrobial compounds of the instant disclosure may be tested for efficacy by measuring a compound's ability to protect a mouse against a microbial infection, such as an infection or disease caused by or related to Gram-positive bacteria, including Staphylococcus aureus, Streptococcus pneumoniae, and Enterococcus faecalis. […] A certain period after infection, mice are then individually treated, for example intravenously (i.v.), with a lipopeptide derivative of this disclosure.
# Antimicrobial lipopeptide derivatives of the instant invention were tested for antimicrobial activity against Gram-positive bacteria in an intraperitoneal (i.p.) murine model (i.e., bacteria were injected i.p. and lipopeptide compounds were administered intravenously (i.v.)). Mice were infected with Staphylococcus aureus, Streptococcus pneumoniae, or Enterococcus faecalis, which were prepared as follows: S. aureus Smith (SAU0017, ATCC 19636) were grown in culture overnight on trypticase soy broth, harvested and then resuspended in fresh media containing 5% mucin (Sigma Chemical Co.); S. pneumoniae (SPN 0032, ATCC 10813) were grown overnight on blood agar plates and re-suspended in 0.9% sterile saline; and E. faecalis EFS0040 (clinical isolate) were grown overnight in culture on blood heart infusion broth, washed and resuspended in 0.9% saline and mixed with equal volume of sterile fecal rat extract. Swiss CD1 mice were each infected i.p. with bacteria at the following doses: S. aureus at 10^6 CFU/mouse; S. pneumoniae at 10^2 CFU/mouse; or E. faecalis at 10^7.5 CFU/mouse. […] The ED50 for each compound was calculated using the method of Reed and Meunch (Am. J. Hyg. 27: 493, 1938).
# [2] = In vivo half-life after single i.v. administration, mice; conditions: female, Swiss CD1, mouse, plasma, iv, 10 mg/kg
# Protocol: Yet other exemplary in vivo models can be used to characterize the pharmacokinetics and pharmacodynamic parameters of antimicrobial compounds of this disclosure. Some parameters that can be measured include an in vivo half-life of a compound, elimination rate and clearance, volume of distribution, and bioavailability. For example, briefly, compounds can be administered as a single i.v. or oral (p.o.) dose in mice or rats. At various time points (ranging from 1 minute to 72 hours), blood from treated animals is collected and the concentration of lipopeptide derivative in the ex vivo plasma can be quantified by, for example, liquid chromatography with mass spectrometric detection (LC/MS). After quantification, pharmacokinetics parameters can be calculated using methods known in the art, such as a one compartment model with mono-exponential decay and linear regression analysis (see, e.g., Fantin et al., Antimicrob. Agents Chemotherap. 35: 1413. 1991).
# A pharmacokinetic parameter that can be measured, and which aids in determining efficacy, after a single i.v. administration of an antimicrobial lipopeptide derivative of the instant disclosure is the systemic half-life of the compound. Briefly, test compounds were dissolved in a 5% mannitol solution (pH was then adjusted) to a concentration of 1 mg/mL (w/v). A single intravenous injection in the lateral caudal vein of Swiss CD1 mice (5 to 6 weeks old, female) or Sprague Dawley rats (male) was used to administer the lipopeptide derivative at a final dose of 10 mg/kg. At various time points (ranging from about 4 minutes to about 24 hours for mice, and 48 or 72 hours for rats) mice were sacrificed and blood was harvested. The concentration of lipopeptide derivative in ex vivo plasma was quantified using liquid chromatography (LC) with mass spectrometric detection (MS).
# [3] = system: Staphylococcus aureus (MSSA)
# Outline: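 Broth microdilution MIC per NCCLS M7-A6 with doubling serial dilutions, in cation-adjusted Mueller-Hinton broth supplemented with 0.625 mM calcium.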
# [4] = system: Staphylococcus aureus SAU0031 (VISA); experiment: Broad spectrum MIC, Table 17/18 column G; type: cell-based; conditions: condition G of Table 17, in µg/mL
# Protocol: (§1) The antimicrobial lipopeptide derivatives described herein were tested for antimicrobial activity against Gram-positive bacteria as follows. The minimum inhibitory concentrations (MIC) of the antimicrobial lipopeptide derivatives of the invention were determined using NCCLS guidelines M7-A6 (2003) with a slight modification in that doubling serial dilutions were used to dilute the test compounds. The broth phase microdilution method was used. Isolated colonies of Staphylococcus aureus (MSSA) from an 18-24 hour blood agar plate cultures were used to inoculate cation adjusted Mueller-Hinton broth (CAMHB) supplemented with 0.625 mM calcium. […] A negative control containing media alone and a positive growth control containing bacteria with media alone were also included. MICs were determined after incubating the plates at about 37° C. for 24 hours. […] In Tables 1 to 16, R is the core cyclic peptide of amphomycin or aspartocin, which can be in the form of a β-isomer, an anhydro, a dianhydro, or any combination thereof. […] Furthermore, a person of skill in the art will appreciate that all the pounds, or groups of compounds, derived from the various combinations of and substituents shown in Tables 1 to 16, are disclosed by the present the same extent as if each compound or group of compounds was set forth individually.
# (§2) Antimicrobial lipopeptide derivatives of the instant invention were tested for antimicrobial activity against Gram-positive bacteria in a variety of media conditions. The […] (MIC) of the antimicrobial lipopeptide derivatives were determined as described in Example 376. The various media used are described in Table 17.
# [5] = system: Streptococcus pneumoniae SPN0032 (PSSP); experiment: Broad spectrum MIC, Table 17/18 column L; type: cell-based; conditions: condition L of Table 17, in µg/mL
# Protocol: as §1, §2
# [6] = system: Staphylococcus aureus SAU0017 (MSSA); experiment: Broad spectrum MIC, Table 17/18 columns E, F (+ 0.625 mM calcium; + calcium and 30% bovine serum); type: cell-based; conditions: in µg/mL; for MIC, media condition E: condition E: + 0.625 mM calcium; for MIC, media condition F: condition F: + calcium and 30% bovine serum
# Protocol: as §1, §2
# [7] = system: Enterococcus faecalis EFS0004 (VSE); experiment: Broad spectrum MIC, Table 17/18 B, C, D (CAMHB; + 0.625 mM calcium; + calcium and 30% bovine serum); type: cell-based; conditions: in µg/mL; for MIC, media condition B: condition B: CAMHB; for MIC, media condition C: condition C: + 0.625 mM calcium; for MIC, media condition D: condition D: + calcium and 30% bovine serum
# Protocol: as §1, §2
# [8] = system: Enterococcus faecium EFM0101 (VRE, MDR); experiment: Broad spectrum MIC, Table 17/18 column A; type: cell-based; conditions: condition A of Table 17, in µg/mL
# Protocol: as §1, §2
# [9] = system: Staphylococcus epidermidis SEP0375 (MRSE); experiment: Broad spectrum MIC, Table 17/18 column I; type: cell-based; conditions: condition I of Table 17, in µg/mL
# Protocol: as §1, §2
# [10] = system: Streptococcus pyogenes SPY0001 (PenS); experiment: Broad spectrum MIC, Table 17/18 column M; type: cell-based; conditions: condition M of Table 17, in µg/mL
# Protocol: as §1, §2
# [11] = system: Streptococcus pneumoniae SPN0002 (PISP); experiment: Broad spectrum MIC, Table 17/18 column J; type: cell-based; conditions: condition J of Table 17, in µg/mL
# Protocol: as §1, §2
# [12] = system: Staphylococcus aureus SAU0065 (MRSA); experiment: Broad spectrum MIC, Table 17/18 column H; type: cell-based; conditions: condition H of Table 17, in µg/mL
# Protocol: as §1, §2
# [13] = system: Streptococcus pneumoniae SPN0023 (PRSP); experiment: Broad spectrum MIC, Table 17/18 column K; type: cell-based; conditions: condition K of Table 17, in µg/mL
# Protocol: as §1, §2
structure (smiles),measurement,setting,value
"CCCCCCCCCCCCCC(=O)NC(CC(=O)O)C(=O)NC1C(=O)N2CCCCC2C(=O)NC(C(C)C(=O)O)C(=O)NC(CC(=O)O)C(=O)NCC(=O)NC(CC(=O)O)C(=O)NCC(=O)NC(C(C)NC(=O)CNC)C(=O)NC(C(C)C)C(=O)N2CCCC2C(=O)NC1C (centres unmarked) [Compound 60, C14-Amphomycin-9-Sar]","ED50 in Mice, S. aureus (SAU0017)",[1],10 mg/kg
same,half-life,[2],4.13 h
same,MIC,"[3]; S. aureus (MSSA), CAMHB supplemented with 0.625 mM calcium, 24 hours at about 37° C., a range = compound tested multiple times",60/0.5 μg/mL
"CCCCCCCCCCCCNC(=O)NC(CC(=O)O)C(=O)NC1C(=O)N2CCCCC2C(=O)NC(C(C)C(=O)O)C(=O)NC(CC(=O)O)C(=O)NCC(=O)NC(CC(=O)O)C(=O)NCC(=O)NC(C(C)NC(=O)CCN)C(=O)NC(C(C)C)C(=O)N2CCCC2C(=O)NC1C (stereo not drawn) [Compound 97, CH3—(CH2)11—NH—C(═O)-Amphomycin-9-(β-Ala)]","MIC, media condition G",[4],4
same,"MIC, media condition L",[5],0.125
same,"MIC, media condition E",[6],0.25
same,"MIC, media condition F",[6],16
same,"MIC, media condition B",[7],64
same,"MIC, media condition C",[7],4
same,"MIC, media condition D",[7],64
same,"MIC, media condition A",[8],2
same,"MIC, media condition I",[9],1
same,MIC,[3]; 24 h,0.25 µg/mL
same,"MIC, media condition M",[10],0.5
same,"MIC, media condition J",[11],0.125
same,"MIC, media condition H",[12],1
same,"MIC, media condition K",[13],0.25
"CCCCCCCCCCCCNC(=O)NC(CC(=O)O)C(=O)NC1C(=O)N2CCCCC2C(=O)NC(C(C)C(=O)O)C(=O)NC(CC(=O)O)C(=O)NCC(=O)NC(CC(=O)O)C(=O)NCC(=O)NC(C(C)NC(=O)CNC)C(=O)NC(C(C)C)C(=O)N2CCCC2C(=O)NC1C (centres unmarked) [Compound 98, CH3—(CH2)11—NH—C(═O)-Amphomycin-9-Sar]","MIC, media condition G",[4],4
same,"MIC, media condition L",[5],0.5
same,"MIC, media condition E",[6],0.5
same,"MIC, media condition F",[6],16
same,"MIC, media condition B",[7],32
same,"MIC, media condition C",[7],4
same,"MIC, media condition D",[7],>64
same,"MIC, media condition A",[8],2
same,"MIC, media condition I",[9],1
same,MIC,[3]; 24 h,0.5 µg/mL
same,"MIC, media condition M",[10],0.5
same,"MIC, media condition J",[11],0.125
same,"MIC, media condition H",[12],1
same,"MIC, media condition K",[13],0.25
"CCCCCCCCCCCCC(=O)NC(CC(=O)O)C(=O)NC1C(=O)N2CCCCC2C(=O)NC(C(C)C(=O)O)C(=O)NC(CC(=O)O)C(=O)NCC(=O)NC(CC(=O)O)C(=O)NCC(=O)NC(C(C)NC(=O)CNC(=O)[C@@H](N)CCCCN)C(=O)NC(C(C)C)C(=O)N2CCCC2C(=O)NC1C (some centres unmarked) [Compound 128, C13-Amphomycin-9-Gly-Lys]","ED50 in Mice, S. aureus (SAU0017)",[1],6.2 mg/kg
same,half-life,[2],0.198 h
"CCCCCCCCCCCCCCC(=O)NC(CC(=O)O)C(=O)NC1C(=O)N2CCCCC2C(=O)NC(C(C)C(=O)O)C(=O)NC(CC(=O)O)C(=O)NCC(=O)NC(CC(=O)O)C(=O)NCC(=O)NC(C(C)NC(=O)[C@@H]2CCCN2)C(=O)NC(C(C)C)C(=O)N2CCCC2C(=O)NC1C (some centres unmarked) [Compound 160, C15-Amphomycin-9-Pro]","MIC, media condition G",[4],16
same,"MIC, media condition L",[5],2
same,"MIC, media condition E",[6],4
same,"MIC, media condition F",[6],>64
same,"MIC, media condition B",[7],16
same,"MIC, media condition C",[7],8
same,"MIC, media condition D",[7],>64
same,"MIC, media condition A",[8],8
same,"MIC, media condition I",[9],4
same,MIC,[3]; 24 h,4 µg/mL
same,"MIC, media condition M",[10],2
same,"MIC, media condition J",[11],0.5
same,"MIC, media condition H",[12],4
same,"MIC, media condition K",[13],0.25
"CCCCCCCCCCCCNC(=O)NC(CC(=O)O)C(=O)NC1C(=O)N2CCCCC2C(=O)NC(C(C)C(=O)O)C(=O)NC(CC(=O)O)C(=O)NCC(=O)NC(CC(=O)O)C(=O)NCC(=O)NC(C(C)N)C(=O)NC(C(C)C)C(=O)N2CCCC2C(=O)NC1C (centres unmarked) [Compound 251, CH3—(CH2)11—NH—C(═O)-Amphomycin]","MIC, media condition G",[4],4
same,"MIC, media condition L",[5],1
same,"MIC, media condition E",[6],2
same,"MIC, media condition F",[6],8
same,"MIC, media condition B",[7],8
same,"MIC, media condition C",[7],4
same,"MIC, media condition D",[7],32
same,"MIC, media condition A",[8],4
same,"MIC, media condition I",[9],2
same,MIC,[3]; 24 h,2 µg/mL
same,"MIC, media condition M",[10],2
same,"MIC, media condition J",[11],0.5
same,"MIC, media condition H",[12],2
same,"MIC, media condition K",[13],1
"CCCCCCCCCCCCCCNC(=O)NC(CC(=O)O)C(=O)NC1C(=O)N2CCCCC2C(=O)NC(C(C)C(=O)O)C(=O)NC(CC(=O)O)C(=O)NCC(=O)NC(CC(=O)O)C(=O)NCC(=O)NC(C(C)N)C(=O)NC(C(C)C)C(=O)N2CCCC2C(=O)NC1C (centres unmarked) [Compound 253, CH3—(CH2)13—NH—C(═O)-Amphomycin]","MIC, media condition G",[4],2-4
same,"MIC, media condition L",[5],0.125
same,"MIC, media condition E",[6],0.5-1
same,"MIC, media condition F",[6],2-4
same,"ED50 in Mice, S. aureus (SAU0017)",[1],4.8 mg/kg
same,"MIC, media condition B",[7],1
same,"MIC, media condition C",[7],0.5-1
same,"MIC, media condition D",[7],16-32
same,"MIC, media condition A",[8],0.5-1
same,half-life,[2],5.15 h
same,"MIC, media condition I",[9],1
same,MIC,[3]; 24 h,0.5 to 1 µg/mL
same,"MIC, media condition M",[10],0.25
same,"MIC, media condition J",[11],0.125
same,"MIC, media condition H",[12],1-2
same,"MIC, media condition K",[13],0.125

# — patent US7868135B2, “Compositions of lipopeptide antibiotic derivatives and methods of use thereof” (priority 2003, dated 2011)
